Assays:
[1] = system: TNF-α, IL-1β, iNOS and COX-2 mRNA in LPS-induced BV-2 cells; assay: Expression of proinflammatory cytokines and enzymes in LPS-induced BV-2 cells (real-time PCR); format: cell-based, murine; settings: 0.1 μM for 24 h, then 100 ng/mL LPS for 24 h, compared to LPS
[2] = system: IL-1β release in LPS-activated BV-2 cells; assay: Secretion of IL-1β in activated BV-2 cells (ELISA); format: cell-based, murine; settings: 0.1 μM for 24 h, then 100 ng/mL LPS for 24 h, compared to LPS-treated cells
[3] = system: RAW264.7 murine macrophage cell line; design: method as in PMID 29890972; settings: 50 μM; cited from earlier work

Row | SMILES | COX-2 mRNA expression [1] | IL-1β mRNA expression [1] | TNF-α mRNA expression [1] | iNOS mRNA expression [1] | release of IL-1β in the culture medium [2] | expression of TNF-α, iNOS, COX-2, NF-κB, IL-1β, and IL-6 [3]
1 | COC(=O)c1c(CCCCCCCCNc2c3c(nc4cc(Cl)ccc24)CCCC3)cccc1OC [Compound 6, Methyl 2-(8-((6-Chloro-1,2,3,4-tetrahydroacridin-9-yl)amino)octyl)-6-methoxybenzoate] | significantly reduce | significantly reduce | significantly reduce | significantly reduce | significantly decrease | –
2 | COC(=O)c1c(CCCCCCCCNc2c3c(nc4ccccc24)CCCC3)cccc1OC [Compound 5, Methyl 2-Methoxy-6-(8-((1,2,3,4-tetrahydroacridin-9-yl)amino)octyl)benzoate] | significantly downregulated | significantly downregulated | not TNF-α | significantly downregulated | significantly decrease | –
3 | CCCCCCCCCCCCCCCc1cccc(O)c1C(=O)O [Compound 1a, reference compound] | reduced | reduced | reduced only the expression of IL-1β and COX-2 | reduced only the expression of IL-1β and COX-2 | – | significantly reduce
